Assay results published in US20080139546A1, “Tetrahydroquinoline, indoline, and related aniline derivatives of heterocycle-fused benzodioxan methylamines” (Wyeth, priority 2006, published 2008).

Columns and labels:
Human 5-HT1A Receptor [1] = target: T1, Human 5-HT1A Receptor (Homo sapiens, UniProt P08908); test: 8-OH-DPAT binding, human 5-HT1A receptor cell line (displacement of [3H]-OHDPAT, stably transfected CHO cells); details: [3H]-OHDPAT 1.5 nM, read-out: h5HT1A Affinity Ki (nM) (Example 17)
T1 construct: expressed in transfected cells; host or cells: CHO cells (Chinese hamster ovary), stably transfected
T1 sequence (P08908 1-422): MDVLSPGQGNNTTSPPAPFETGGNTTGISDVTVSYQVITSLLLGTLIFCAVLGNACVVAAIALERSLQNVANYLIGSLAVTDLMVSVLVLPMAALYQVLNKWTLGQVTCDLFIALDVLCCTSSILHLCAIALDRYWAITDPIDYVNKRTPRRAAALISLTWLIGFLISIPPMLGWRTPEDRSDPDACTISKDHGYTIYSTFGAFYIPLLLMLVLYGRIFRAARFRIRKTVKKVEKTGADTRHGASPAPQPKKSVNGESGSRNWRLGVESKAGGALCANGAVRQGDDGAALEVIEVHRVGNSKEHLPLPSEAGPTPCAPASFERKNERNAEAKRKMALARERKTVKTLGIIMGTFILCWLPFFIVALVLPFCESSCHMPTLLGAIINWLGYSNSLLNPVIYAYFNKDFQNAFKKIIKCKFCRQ
Experimental: Affinity for the serotonin 5-HT1A receptor was established by testing each compound's ability to displace [^3H]-OHDPAT (dipropylaminotetralin) from the 5-HT1A serotonin receptor following a modification of the procedure of Hall et al., J. Neurochem. 44:1685-1696 (1985). Stably transfected Chinese hamster ovary (CHO) cells were plated and grown in Dulbecco's Modified Eagle's Medium (DMEM) containing 10% heat inactivated fetal bovine serum (FBS) and non-essential amino acids. Cells were scraped off the plate, transferred to centrifuge tubes, and washed twice by centrifugation (2000 rpm for 10 minutes at 4° C.) in buffer (50 mM Tris, pH 7.5). The resulting pellets were aliquoted and stored at −80° C. On the day of assay, the cells were thawed on ice, and re-suspended in buffer. The binding assay was performed in a 96-well microtiter plate in a total volume of about 250 μL. Non-specific binding was determined in the presence of 10 μM 5-HT; the final radio ligand concentration was 1.5 nM. Following a 30 minute incubation at room temperature, the reaction was terminated by the addition of ice cold buffer and rapid filtration through a GF/B filter presoaked for 30 minutes in 0.5% polyethyleneimine (PEI). Compounds were initially tested in a single point assay to determine percent inhibition at 1 μM, 0.1 μM, and 0.01 μM. Subsequently, Ki values were determined for compounds defined to be active. Percent inhibition Ki was determined by RFComp (Lundon Software, Chagrin Falls, Ohio), with serotonin and 8-OH-DPAT as the reference compounds.
High affinity for the receptor is evidence of a compound's ability to directly modulate activity at the 5-HT1A receptor.

Human 5-HT1A Receptor [2] = target: T1, Human 5-HT1A Receptor; test: cAMP radioimmunoassay (RIA) in human 5-HT1A receptor cell line, inhibition of forskolin stimulated cAMP; assay type: cell-based; details: forskolin (1 μM) stimulated cAMP, stably transfected CHO cells; read-out: h5HT1A cAMP EC50 (nM) (Example 19)
Experimental: Certain effects of 5-HT (e.g., certain effects mediated by the interaction of 5-HT with the 5-HT1A receptor) are mediated by cAMP. To test the ability of compounds described herein to modulate cAMP, a radioimmunoassay (RIA) method was used. Briefly, stably transfected CHO cells were grown in DMEM containing 10% heat inactivated FBS and non-essential amino acids. The cells were plated at a density of 10^6 cells per well in a 96-well plate and incubated for 2 days in a CO2 incubator. On the second day, the medium was replaced with 0.1 ml Krebs and incubated 15 minutes at 37° C. The medium was then replaced with Krebs buffer containing 500 μM isobutylmethylxanthine (IBMX) and incubated for approximately 5 minutes at 37° C. Wells were treated with forskolin (1 μM final concentration) followed immediately by test compound (0.1 and 1 μM for the initial screen) and incubated for an additional 10 minutes at 37° C. The reaction was terminated by removal of the medium and the addition of 0.5 ml ice cold assay buffer (supplied in the RIA kit). Plates were stored at −20° C. prior to assessment of cAMP formation by RIA. The cAMP kit was obtained from Amersham (Piscataway, N.J.) and the RIA was performed as per the kit instructions. In the initial screen, percent inhibition of forskolin stimulated cAMP was measured. […] These compounds behaved as either full agonists or partial agonists. 5-HT, BMY 7378, buspirone, and 8-OH-DPAT were used as reference compounds.
All compounds tested inhibited the forskolin-stimulated increase in […].

serotonin transporter = target: T2, serotonin transporter (Rattus norvegicus, UniProt P31652); test: 3H-paroxetine binding to rat frontal cortical membranes, affinity for the serotonin transporter; details: 3H-paroxetine 0.1 nM, male Sprague Dawley rat frontal cortical membranes; read-out: 5HT Uptake r5HT-T Ki (nM) (Example 18)
T2 construct: frontal cortical membranes prepared from male Sprague Dawley rats; from tissue; host or cells: rat frontal cortex membranes (male Sprague Dawley)
Experimental: A protocol similar to that used by Cheetham et al. (Neuropharmacol. 32:737-743, 1993) was used to determine the affinity of compounds for the serotonin transporter (i.e., by determining the relative ability of a compound to displace ^3H-paroxetine from male rat frontal cortical membranes). Briefly, frontal cortical membranes prepared from male Sprague Dawley rats were incubated with ^3H-paroxetine (0.1 nM) for 60 minutes at 25° C. All tubes also contained either vehicle, test compound (one to eight concentrations), or a saturating concentration of fluoxetine (10 μM) to define […]. All reactions were terminated by the addition of ice cold Tris buffer followed by rapid filtration using a Tom Tech filtration device to separate bound from free ^3H-paroxetine. Bound radioactivity was quantitated using a Wallac 1205 Beta Plate® counter. Nonlinear regression analysis was used to determine IC50 values which were converted to Ki values using the method of Cheng and Prusoff (Biochem. Pharmacol. 22: 3099-3108, 1973); […].
This affinity translates to the blockade of 5-HT uptake, i.e., the ability of a compound increase synaptic 5-HT levels and to act like an SSRI.

Human 5-HT Transporter = target: T3, Human 5-HT Transporter (Homo sapiens, UniProt P31645); test: Inhibition of 3H-5-HT uptake by Jar cells possessing the human 5-HT transporter; assay type: cell-based; details: Jar cells treated with staurosporine, read-out: 5HT Uptake h5HT-T IC50 (nM) (Example 20)
T3 construct: endogenous in cells; host or cells: Jar cells (human carcinoma cell line), treated with staurosporine
Experimental: [Staurosporine greatly increases the expression of the 5-HT-Transporter.] On the day of assay, vehicle, excess of fluoxetine, or test compound was added to various wells on the plate. ^3H-5-HT was then aliquoted into all wells and the samples were incubated at 37° C. for 5 minutes. The wells were then washed with ice cold 50 mM Tris HCl (pH 7.4) buffer and aspirated to remove free ^3H-5-HT. 25 μL 0.25 M NaOH was then added to each well to lyse the cells and 75 μL scintillation cocktail (Microscint™ 20) was added prior to quantitation on a Packard TopCount® machine. Tubes with vehicle represent total possible uptake, radioactivity counted in tubes with excess fluoxetine represent nonspecific binding/uptake and were subtracted from the total possible uptake to give total possible specific uptake. This nonspecific binding (usual low in number) was then subtracted from the counts obtained in wells with various test compounds (or different concentrations of a test compound) resulting in uptake in the presence of drug. Specific uptake was then expressed as a percent of control values and was analyzed using nonlinear regression analysis (Prizm) to determine IC50 values. If the compound was active in inhibiting 5-HT uptake, its counts will be close to that obtained with fluoxetine.
This blockade, in vivo, would be expected to result in an increase in extracellular 5-HT concentrations.

T3 sequence (P31645 whole entry): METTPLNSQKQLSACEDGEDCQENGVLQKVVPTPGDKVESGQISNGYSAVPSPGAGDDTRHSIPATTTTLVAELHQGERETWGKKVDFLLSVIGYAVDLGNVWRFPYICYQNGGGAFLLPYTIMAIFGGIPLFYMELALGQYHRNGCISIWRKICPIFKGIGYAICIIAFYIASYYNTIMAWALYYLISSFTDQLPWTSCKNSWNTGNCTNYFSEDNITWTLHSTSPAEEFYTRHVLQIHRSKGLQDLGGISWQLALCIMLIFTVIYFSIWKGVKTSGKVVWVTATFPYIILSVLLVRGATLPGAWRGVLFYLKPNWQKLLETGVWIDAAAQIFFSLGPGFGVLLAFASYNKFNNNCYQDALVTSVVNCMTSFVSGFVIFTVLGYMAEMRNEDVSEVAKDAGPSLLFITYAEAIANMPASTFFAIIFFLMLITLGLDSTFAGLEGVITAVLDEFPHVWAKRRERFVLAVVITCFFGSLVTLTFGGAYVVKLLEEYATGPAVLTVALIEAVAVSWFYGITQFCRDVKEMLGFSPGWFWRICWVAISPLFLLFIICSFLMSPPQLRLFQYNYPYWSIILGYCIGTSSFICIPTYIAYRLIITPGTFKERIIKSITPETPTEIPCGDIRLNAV
T2 sequence (P31652 whole entry): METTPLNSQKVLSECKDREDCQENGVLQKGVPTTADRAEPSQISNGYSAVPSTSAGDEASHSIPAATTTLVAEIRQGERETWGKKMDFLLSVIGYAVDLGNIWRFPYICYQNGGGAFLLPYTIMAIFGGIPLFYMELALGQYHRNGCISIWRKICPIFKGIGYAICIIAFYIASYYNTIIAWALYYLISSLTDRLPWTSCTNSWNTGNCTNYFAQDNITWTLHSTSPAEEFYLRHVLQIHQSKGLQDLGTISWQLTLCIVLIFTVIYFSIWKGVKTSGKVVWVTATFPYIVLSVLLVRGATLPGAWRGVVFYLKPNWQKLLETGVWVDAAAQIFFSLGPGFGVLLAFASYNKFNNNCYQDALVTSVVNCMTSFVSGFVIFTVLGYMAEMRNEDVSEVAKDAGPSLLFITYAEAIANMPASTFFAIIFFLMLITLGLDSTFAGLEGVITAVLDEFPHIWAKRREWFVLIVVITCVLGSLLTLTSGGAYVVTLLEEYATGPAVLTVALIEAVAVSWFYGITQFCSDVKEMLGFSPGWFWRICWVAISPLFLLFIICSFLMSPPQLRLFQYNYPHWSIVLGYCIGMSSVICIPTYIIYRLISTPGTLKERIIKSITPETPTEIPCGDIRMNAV

- Ki (Human 5-HT1A Receptor [1]): 0.27 nM
- EC50 (Human 5-HT1A Receptor [2]): 1.57 nM
- Ki (serotonin transporter): 7.7 nM
- IC50 (Human 5-HT Transporter): 32.9 nM
SMILES: Cc1ccc2c3c(ccc2n1)OC[C@H](CNCCCN1CCCc2ccc(F)cc21)O3 [Example 4, 3-(7-fluoro-3,4-dihydroquinolin-1(2H)-yl)-N-{[(2S)-8-methyl-2,3-dihydro[1,4]dioxino[2,3-f]quinolin-2-yl]methyl}propan-1-amine]
